Experimental findings from ChEMBL document CHEMBL1201862, “PubChem BioAssay data set” (2004) are described below.

Among the test systems are BT-549; CAKI-1; COLO 205; DU-145; HCT-15; HT-29; Hs-578T; IGROV-1; MDA-N; MOLT-4; NCI-H23; NCI/ADR-RES; OVCAR-4; PC-3; SF-539; SN12C; T47D; UACC-62; UO-31.
What all share (assay): NCI tumour cell line growth inhibition, 48 h

SMILES strings stand for the structures.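 Protocol summary: plate cells (96-well), add compound at 5 concentrations, incubate 48 h, interpolate endpoints linearly. The concentration for 50% growth inhibition is given as GI50.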 Active and inactive are the calls of the source. Cut-off read from the data, not from the text of the source: active = GI50 up to about 1.1 µM and inactive = higher. Where only a bound is given, the exact number is not on record here.

For the compound `CC(=O)Nc1ccc(Cc2ccc3nc(O)cc(C)c3c2)cc1`, the GI50 was > 100 µM (inactive) with BT-549; 63.5 µM (inactive) in the test on CAKI-1; 57.4 µM (inactive) in the test on COLO 205; 32.5 µM (inactive) in the test with DU-145; greater than 100 µM with HCT-15; 50.6 µM (inactive) in the test on HT-29. Further, the GI50 in the test on Hs-578T was 85.1 µM (inactive); in the test with IGROV-1 it was 61.2 µM (inactive); in the test on MDA-N, > 100 µM (inactive); in the test with MOLT-4, > 100 µM (inactive); in the test with NCI-H23, > 100 µM (inactive); with NCI/ADR-RES it was > 100 µM (inactive). In addition, the GI50 in the test with OVCAR-4 was > 100 µM (inactive); in the test with PC-3, 50.5 µM (inactive); in the test with SF-539 it was 68.7 µM (inactive); in the test with SN12C, 64.6 µM (inactive); with T47D it was 55.3 µM (inactive); in the test on UACC-62 it was 31 µM (inactive). Further, in the test with UO-31, the GI50 is > 100 µM (inactive).

For `CO/C(N)=C(C#N)/N=C/c1cccs1`, the GI50 is 95.1 µM (inactive) in the test on BT-549; 24.3 µM (inactive) in the test with CAKI-1; 36.6 µM (inactive) in the test with COLO 205; > 100 µM (inactive) in the test on DU-145; 45.7 µM in the test with HCT-15; 25.9 µM (inactive) with HT-29. For the same compound, the GI50 with Hs-578T is 66.2 µM (inactive); with IGROV-1 it was 77.6 µM (inactive); in the test with MDA-N it was 27.4 µM (inactive); with MOLT-4, 62.8 µM (inactive); with NCI-H23, > 100 µM (inactive); in the test on NCI/ADR-RES it was 98.2 µM (inactive). Also, the GI50 was > 100 µM (inactive) in the test with OVCAR-4; > 100 µM (inactive) in the test with PC-3; 92.7 µM (inactive) in the test on SF-539; > 100 µM (inactive) in the test on SN12C; 76.6 µM (inactive) with T47D; 35.5 µM (inactive) with UACC-62. In the test with UO-31, the GI50 was > 100 µM (inactive).

In the case of `CC(C)n1c2c(c3ccccc3c1=O)C(=O)c1ccccc1-2`, the GI50 in the test on BT-549 is > 100 µM (inactive); in the test on CAKI-1, > 100 µM (inactive); in the test on COLO 205, > 100 µM (inactive); in the test with DU-145, > 100 µM (inactive); in the test with HCT-15, greater than 100 µM; in the test with HT-29 it was > 100 µM (inactive). Moreover, the GI50 in the test on Hs-578T, with IGROV-1, in the test with MDA-N, in the test with MOLT-4, with NCI-H23 and in the test with NCI/ADR-RES was > 100 µM (inactive) in each case. For the same compound, the GI50 was 50.5 µM (inactive) in the test with OVCAR-4; > 100 µM (inactive) with PC-3; > 100 µM (inactive) in the test with SF-539; > 100 µM (inactive) in the test on SN12C; > 100 µM (inactive) in the test with T47D; > 100 µM (inactive) in the test on UACC-62. Also, in the test with UO-31, the GI50 is > 100 µM (inactive).

With `O=C(NC(=O)c1cc(-c2ccccc2)n[nH]1)c1ccccc1`, the GI50 with BT-549 was > 100 µM (inactive); in the test with CAKI-1 it was > 100 µM (inactive); in the test with COLO 205, > 100 µM (inactive); with DU-145, > 100 µM (inactive); in the test with HCT-15 it was greater than 100 µM; with HT-29, > 100 µM (inactive). Besides, the GI50 with Hs-578T, with IGROV-1, in the test on MDA-N, in the test on MOLT-4, with NCI-H23 and with NCI/ADR-RES was > 100 µM (inactive) each time. For the same compound, the GI50 with OVCAR-4, in the test on PC-3, with SF-539, in the test with SN12C, in the test on T47D and in the test with UACC-62 was > 100 µM (inactive) throughout. Besides, the GI50 in the test on UO-31 was > 100 µM (inactive).

With `Nc1nc(N)c2ncn(Cc3c(Cl)cccc3Cl)c2n1`, the GI50 in the test on BT-549 is > 100 µM (inactive); with CAKI-1, > 100 µM (inactive); in the test with COLO 205, > 100 µM (inactive); with DU-145, > 100 µM (inactive); in the test on HCT-15 it was greater than 100 µM; in the test with HT-29, > 100 µM (inactive). For the same compound, the GI50 is > 100 µM (inactive) in the test with Hs-578T; > 100 µM (inactive) in the test on IGROV-1; > 100 µM (inactive) in the test with MDA-N; > 100 µM (inactive) with MOLT-4; > 100 µM (inactive) in the test with NCI-H23; 50.5 µM (inactive) in the test with NCI/ADR-RES. For the same compound, the GI50 in the test on OVCAR-4, in the test on PC-3, in the test with SF-539, in the test with SN12C, in the test with T47D and in the test with UACC-62 was > 100 µM (inactive) throughout. Also, the GI50 in the test on UO-31 was > 100 µM (inactive).

With `OC(c1cc(-c2ccccc2)nc2c1ccc1ccccc12)C1CCCCN1` (centres undefined), the GI50 in the test on BT-549 is 3.97 µM (inactive); with CAKI-1, 1.91 µM (inactive); in the test on COLO 205, 1.95 µM (inactive); in the test on DU-145, 2.02 µM (inactive); in the test with HCT-15, 2.12 µM; in the test on HT-29, 1.68 µM (inactive). For the same compound, the GI50 in the test with Hs-578T is 1.51 µM (inactive); in the test on IGROV-1, 1.68 µM (inactive); in the test with MDA-N, 1.64 µM (inactive); in the test on MOLT-4, 2.18 µM (inactive); in the test on NCI-H23, 1.95 µM (inactive); with NCI/ADR-RES, 2.1 µM (inactive). In addition, the GI50 in the test with OVCAR-4 is 1.96 µM (inactive); in the test with PC-3, 1.71 µM (inactive); in the test with SF-539, 1.92 µM (inactive); in the test on SN12C, 1.62 µM (inactive); with T47D it was 1.93 µM (inactive); in the test on UACC-62, 1.85 µM (inactive). In the test with UO-31, the GI50 is 1.02 µM (active).

As for `O=[N+]([O-])c1ccc(Cl)cc1/C=N/C12CC3CC(CC(C3)C1)C2`, the GI50 in the test on BT-549 is > 55.7 µM (inactive); in the test on CAKI-1 it was > 100 µM (inactive); with COLO 205, 45 µM (inactive); in the test on DU-145, > 100 µM (inactive); in the test with HCT-15, 25.6 µM; in the test with HT-29, 30.6 µM (inactive). Further, the GI50 with Hs-578T was 51.8 µM (inactive); in the test with IGROV-1 it was 55.7 µM (inactive); with MDA-N, 52.5 µM (inactive); in the test on MOLT-4, 18.5 µM (inactive); in the test on NCI-H23, 50.9 µM (inactive); with NCI/ADR-RES, 30.1 µM (inactive). Further, the GI50 is 63.5 µM (inactive) in the test with OVCAR-4; 35.9 µM (inactive) in the test on PC-3; 31.7 µM (inactive) in the test with SF-539; 51.6 µM (inactive) with SN12C; 37.4 µM (inactive) in the test on T47D; 30.6 µM (inactive) in the test on UACC-62. The GI50 with UO-31 is 76.7 µM (inactive).

As for `CC(=O)CCCCn1c(=O)c2c(nc(Br)n2C)n(C)c1=O`, the GI50 was > 100 µM (inactive) in the test on BT-549; 1.82 µM (inactive) with CAKI-1; > 100 µM (inactive) with COLO 205; > 100 µM (inactive) in the test on DU-145; greater than 100 µM in the test with HCT-15; > 100 µM (inactive) in the test on HT-29. Further, the GI50 in the test with Hs-578T is > 100 µM (inactive); in the test on IGROV-1, 44.2 µM (inactive); with MDA-N, > 100 µM (inactive); in the test on MOLT-4, > 100 µM (inactive); with NCI-H23, > 100 µM (inactive); in the test with NCI/ADR-RES, > 100 µM (inactive). The GI50 in the test with OVCAR-4, in the test on PC-3, with SF-539, in the test with SN12C, in the test with T47D and in the test on UACC-62 was > 100 µM (inactive) in each case. The GI50 in the test with UO-31 is 32.4 µM (inactive).

`COc1ccccc1/C=C/C1=NN(c2cccc(S(=O)(=O)O)c2)C2(C1)SCC(=O)N2c1nc2ccccc2s1` (centres undefined): the GI50 is 56.1 µM (inactive) in the test on BT-549; > 100 µM (inactive) in the test on CAKI-1; 67.8 µM (inactive) in the test with COLO 205; 89.7 µM (inactive) with DU-145; 67.9 µM in the test with HCT-15; 97.9 µM (inactive) in the test with HT-29. In addition, the GI50 is > 100 µM (inactive) in the test on Hs-578T; 21.4 µM (inactive) with IGROV-1; > 100 µM (inactive) in the test on MDA-N; 36.7 µM (inactive) with MOLT-4; 30.3 µM (inactive) in the test with NCI-H23; > 100 µM (inactive) with NCI/ADR-RES. The GI50 was 86.7 µM (inactive) in the test on OVCAR-4; 70.1 µM (inactive) in the test on PC-3; > 100 µM (inactive) with SF-539; > 100 µM (inactive) with SN12C; 20.4 µM (inactive) with T47D; 53.8 µM (inactive) in the test on UACC-62. Besides, in the test with UO-31, the GI50 was 71.9 µM (inactive).

In the case of `C1CSCCSCCSCCSCCS1`, the GI50 in the test on BT-549 is > 100 µM (inactive); in the test on CAKI-1 it was > 100 µM (inactive); in the test with COLO 205 it was > 100 µM (inactive); in the test on DU-145, > 100 µM (inactive); in the test on HCT-15, greater than 100 µM; in the test with HT-29, > 100 µM (inactive). Further, the GI50 in the test with Hs-578T, in the test with IGROV-1, with MDA-N, in the test with MOLT-4, with NCI-H23 and in the test with NCI/ADR-RES was > 100 µM (inactive) each time. The GI50 in the test with OVCAR-4, with PC-3, in the test with SF-539, in the test on SN12C, in the test with T47D and in the test on UACC-62 was > 100 µM (inactive) throughout. For the same compound, the GI50 in the test with UO-31 was > 100 µM (inactive).

As to `Nc1nc(Sc2ccc([N+](=O)[O-])c3nonc23)c2nc[nH]c2n1`, the GI50 with BT-549 is 2.07 µM (inactive); with CAKI-1, 0.36 µM (active); with COLO 205 it was 1.61 µM (inactive); in the test with DU-145, 0.705 µM (active); with HCT-15, 1.89 µM; in the test on HT-29 it was 1.59 µM (inactive). Also, the GI50 was 6.58 µM (inactive) with Hs-578T; 3.57 µM (inactive) in the test with IGROV-1; 0.91 µM (active) in the test on MDA-N; 0.301 µM (active) in the test with MOLT-4; 2.25 µM (inactive) with NCI-H23; 0.495 µM (active) in the test with NCI/ADR-RES. The GI50 with OVCAR-4 was 1.14 µM (inactive); in the test on PC-3, 3.34 µM (inactive); in the test on SF-539, 1.53 µM (inactive); in the test on SN12C, 1.97 µM (inactive); with T47D, 1.2 µM (inactive); in the test on UACC-62, 0.43 µM (active). The GI50 in the test on UO-31 is 0.716 µM (active).
